{
  "source": "patent US20060052600A1",
  "about": "“Amino-functional chalcones” (priority 2002, published 2006)",
  "key": {"Plasmodium berghei K173 [1]": {"test_system": "Plasmodium berghei K173", "test": "Multiple oral administrations in Plasmodium berghei K173 infected NMRI female mice", "assay_type": "in vivo", "settings": "FIG. 8"}, "Plasmodium berghei K173 [2]": {"test_system": "Plasmodium berghei K173", "test": "Multiple intra venous administration in Plasmodium berghei K173 infected NMRI female mice", "assay_type": "in vivo", "settings": "FIG. 7", "experimental": "The doses stated were administered intra venously as solutions in a suitable vehicle."}, "[3]": {"test_system": "DHODH (dihydroorotate dehydrogenase)", "test": "DHODH assay", "assay_type": "biochemical", "settings": "test concentration not given"}, "Eschericia coli ESS": {"test_system": "Eschericia coli ESS", "test": "MIC determination in broth microdilution assay"}, "[4]": {"test_system": "Staphylococcus aureus ATCC29213", "test": "MIC determination in broth microdilution assay"}, "[5]": {"test_system": "Enterococcus faecium #17501 (vancomycin-resistant clinical isolate)", "test": "MIC determination in broth microdilution assay"}, "[6]": {"test_system": "Staphylococcus intermedius #2357 (clinical isolate)", "test": "MIC determination in broth microdilution assay"}, "[7]": {"test_system": "Streptococcus pneumoniae #998 (clinical isolate)", "test": "MIC determination in broth microdilution assay"}, "[8]": {"test_system": "Enterococcus faecalis ATCC29212", "test": "MIC determination in broth microdilution assay"}, "[9]": {"test_system": "Staphylococcus aureus ATCC33591 (resistant to methicillin)", "test": "MIC determination in broth microdilution assay"}, "[10]": {"test_system": "Eschericia coli ATCC25922", "test": "MIC determination in broth microdilution assay"}, "[11]": {"test": "Determination of solubility", "assay_type": "physicochemical", "settings": "pH 7.4", "experimental": "Solubility of the compounds was determined by preparing a saturated solution of compound in 0.3 M phosphate buffer (pH 7.4±0.3) in a brown glass tube. The suspensions were rotated slowly for 24 hours. Aliquots were centrifuged for 10 minutes at 14.000 rpm and supernatants were diluted in 40% (v/v) acetonitrile in water prior to HPLC analysis. Concentrations of analytes were quantified against a standard curve and used as term of solubility.\nThe HPLC-UV method used for the assessment of solubility is the same as used in the in vitro metabolism assay."}, "Pharmacokinetic studies": {"test": "Pharmacokinetic studies", "assay_type": "in vivo, mice", "settings": "in vivo, species not given", "source_text": "Samples of serum were taken at defined timepoints.\nThe supernatant was used for the analysis."}, "[12]": {"test_system": "panel of non-fastidious bacteria (Gram-positive pathogens and Eschericia coli)", "test": "Activity against non-fastidious bacteria (panel, results in words)"}, "[13]": {"test_system": "Plasmodium falciparum 3D7", "test": "Plasmodium falciparum assay", "assay_type": "cell-based"}, "L. major promastigotes": {"test_system": "L. major promastigotes", "test": "Leishmania promastigote assay", "settings": "read-out: IC50, effect on L. major"}, "[14]": {"test": "Determination of metabolic stability (liver microsomes)", "assay_type": "in vitro ADME, rat", "experimental": "Samples were incubated for 15 min at 37° C. and the reactions were terminated by addition of equal volumes of acetonitrile. Blank incubations were performed at the same concentration but without addition of microsomes. Both blank and microsome-containing samples were made in […] of three. […] The fraction of compound metabolised during the 15 min of incubation was determined by comparison of blank and microsome-containing samples using a Waters Alliance 2690 separation module and Waters 996 PDA-detector (Waters. […] This was followed by a 5 minutes linear gradient to initial conditions, which were maintained for 5 min. The flow rate was 0.20 ml/min and injection volume 10 μl."}, "[15]": {"test_system": "Plasmodium falciparum DD2 (Cq-res)", "test": "Plasmodium falciparum assay, resistant strain", "assay_type": "cell-based", "settings": "DD2, read-out: Plasmodium falciparum IC50, DD2 (Cq-res)"}, "[16]": {"test_system": "Plasmodium falciparum K1(Cq-res)", "test": "Plasmodium falciparum assay, resistant strain", "assay_type": "cell-based", "settings": "K1, read-out: Plasmodium falciparum IC50, K1(Cq-res)"}, "[17]": {"test_system": "Plasmodium falciparum 7G8(Cq-res)", "test": "Plasmodium falciparum assay, resistant strain", "assay_type": "cell-based", "settings": "7G8, read-out: Plasmodium falciparum IC50, 7G8(Cq-res)"}},
  "note": "Where two headings read alike, the source gives them in different places.",
  "data": [
    {"smiles": "CN(C)Cc1ccccc1C(=O)/C=C/c1ccc(Cl)cc1Cl", "note": "[A027, (E)-3-(2,4-Dichloro-phenyl)-1-(2-dimethylaminomethyl-phenyl)-propenone]", "values": [
      {"measurement": "parasitaemia, multiple oral administrations", "setting": "Plasmodium berghei K173 [1]", "result": "significant decrease in the parasitaemia"},
      {"measurement": "parasitaemia, multiple intra venous administrations", "setting": "Plasmodium berghei K173 [2]", "result": "significant decrease in the parasitaemia"}
    ]},
    {"smiles": "CN(C)CCCNCc1cccc(C(=O)/C=C/c2ccc(Cl)cc2Cl)c1", "note": "[A022, (E)-3-(2,4-Dichloro-phenyl)-1-{3-[(3-dimethylamino-propylamino)-methyl]-phenyl}-propenone]", "values": [
      {"measurement": "Inhibition of DHODH", "setting": "[3]", "result": 28, "unit": "%"},
      {"measurement": "MIC, H: Eschericia coli ESS", "setting": "Eschericia coli ESS", "result": 18.8, "unit": "µM"},
      {"measurement": "MIC, A: Staphylococcus aureus ATCC29213", "setting": "[4]", "result": 37.5, "unit": "µM"},
      {"measurement": "MIC, E: Enterococcus faecium #17501", "setting": "[5]", "result": 18.8, "unit": "µM"},
      {"measurement": "MIC, C: Staphylococcus intermedius #2357", "setting": "[6]", "result": 37.5, "unit": "µM"},
      {"measurement": "MIC, F: Streptococcus pneumoniae #998", "setting": "[7]", "result": 18.8, "unit": "µM"},
      {"measurement": "MIC, D: Enterococcus faecalis ATCC29212", "setting": "[8]", "result": 18.8, "unit": "µM"},
      {"measurement": "MIC, B: Staphylococcus aureus ATCC33591", "setting": "[9]", "result": 37.5, "unit": "µM"},
      {"measurement": "MIC, G: Eschericia coli ATCC25922", "setting": "[10]", "result": 18.8, "unit": "µM"}
    ]},
    {"smiles": "C=CC(C)(C)c1cc(/C=C/C(=O)c2ccc(O)cc2)c(OC)cc1O", "note": "[LicA, Licochalcone A, reference compound]", "values": [
      {"measurement": "aqueous solubility", "setting": "[11]", "result": "approximately 0.01 mg/ml"},
      {"measurement": "Inhibition of DHODH", "setting": "[3]", "result": 25, "unit": "%"},
      {"measurement": "t½ in vivo", "setting": "Pharmacokinetic studies", "result": 10, "unit": "min"},
      {"measurement": "activity against Gram-negative bacterium Eschericia coli", "setting": "[12]", "result": "only modest or no activity"},
      {"measurement": "activity against common pathogenic Gram-positive non-fastidious bacteria", "setting": "[12]; also against antibiotic resistant bacteria", "result": "moderate bactericidal activity"},
      {"measurement": "MIC, H: Eschericia coli ESS", "setting": "Eschericia coli ESS", "result": 300.0, "unit": "µM"},
      {"measurement": "IC50", "setting": "[13]; Table 2, read-out: IC50, activity against Plasmodium falciparum 3D7", "result": 6400, "unit": "nM"},
      {"measurement": "MIC, A: Staphylococcus aureus ATCC29213", "setting": "[4]", "result": 37.5, "unit": "µM"},
      {"measurement": "MIC, E: Enterococcus faecium #17501", "setting": "[5]", "result": 37.5, "unit": "µM"},
      {"measurement": "MIC, C: Staphylococcus intermedius #2357", "setting": "[6]", "result": 37.5, "unit": "µM"},
      {"measurement": "MIC, F: Streptococcus pneumoniae #998", "setting": "[7]", "result": 75.0, "unit": "µM"},
      {"measurement": "MIC, D: Enterococcus faecalis ATCC29212", "setting": "[8]", "result": 37.5, "unit": "µM"},
      {"measurement": "MIC, B: Staphylococcus aureus ATCC33591", "setting": "[9]", "result": 37.5, "unit": "µM"},
      {"measurement": "IC50", "setting": "L. major promastigotes", "result": 4600, "unit": "nM"},
      {"measurement": "metabolic turn-over in vitro", "setting": "[14]", "result": 100, "unit": "%"},
      {"measurement": "Metabolic turn-over (rat) in vitro", "setting": "[14]; 20 μM, 15 min, 37° C.", "result": 100, "unit": "%"}
    ]},
    {"smiles": "CCN(CC)CCCC(C)Nc1ccnc2cc(Cl)ccc12", "note": "(stereo not drawn) [Chloroquine]", "values": [
      {"measurement": "IC50", "setting": "[15]", "result": 1000, "unit": "nM"},
      {"measurement": "IC50", "setting": "[16]", "result": "> 1560", "unit": "nM"},
      {"measurement": "IC50", "setting": "[17]", "result": 1090, "unit": "nM"},
      {"measurement": "IC50", "setting": "[13]; Plasmodium falciparum, 3D7, read-out: Plasmodium falciparum IC50, 3D7(Cq-sen)", "result": 130, "unit": "nM"}
    ]},
    {"smiles": "COc1ccc(-c2ccccc2)cc1/C=C/C(=O)c1ccc(CCN(C)C)cc1", "note": "[A117, (E)-1-[4-(2-Dimethylamino-ethyl)-phenyl]-3-(4-methoxy-biphenyl-3-yl)-propenone]", "values": [
      {"measurement": "MIC, H: Eschericia coli ESS", "setting": "Eschericia coli ESS", "result": 9.4, "unit": "µM"},
      {"measurement": "MIC, A: Staphylococcus aureus ATCC29213", "setting": "[4]", "result": 9.4, "unit": "µM"},
      {"measurement": "MIC, E: Enterococcus faecium #17501", "setting": "[5]", "result": 37.5, "unit": "µM"},
      {"measurement": "MIC, C: Staphylococcus intermedius #2357", "setting": "[6]", "result": 9.4, "unit": "µM"},
      {"measurement": "MIC, F: Streptococcus pneumoniae #998", "setting": "[7]", "result": 37.5, "unit": "µM"},
      {"measurement": "MIC, D: Enterococcus faecalis ATCC29212", "setting": "[8]", "result": 37.5, "unit": "µM"},
      {"measurement": "MIC, B: Staphylococcus aureus ATCC33591", "setting": "[9]", "result": 9.4, "unit": "µM"},
      {"measurement": "MIC, G: Eschericia coli ATCC25922", "setting": "[10]", "result": 150, "unit": "µM"}
    ]}
  ]
}
